Source: the NIST ThermoML archive (doi:10.1016/j.fluid.2008.03.020)
± gives the expanded uncertainty stated by the source.

Assays:
[1] = refractive index (Na D-line) (dimensionless); details: Liquid, Standard Abbe refractometry
[2] = Liquid

SMILES | refractive index ([1]; 293.15 K) | mass density ([2]; 293.15 K) [kg/m3] | refractive index ([1]; 298.15 K) | mass density ([2]; 298.15 K) [kg/m3] | other results
ClC(Cl)C(Cl)Cl [1,1,2,2-tetrachloroethane] | 1.494 ± 0.0007 | 1593 ± 4.5 | – | – | vapor or sublimation pressure ([2]; 417.25 K): 95.5 ± 2 kPa
ClCCCl [1,2-dichloroethane] | 1.4196 ± 0.0007 | 1252.9 ± 3.4 | – | – | vapor or sublimation pressure ([2]; 355.15 K): 95.5 ± 2 kPa
C=CC#N [acrylonitrile] | – | – | 1.3887 ± 0.0007 | 800.3 ± 2 | vapor or sublimation pressure ([2]; 348.75 K): 95.5 ± 2 kPa
Clc1ccccc1 [chlorobenzene] | – | – | 1.5218 ± 0.0007 | 1101 ± 3 | vapor or sublimation pressure ([2]; 402.85 K): 95.5 ± 2 kPa
O=[N+]([O-])c1ccccc1 [nitrobenzene] | – | – | 1.55 ± 0.0007 | 1198.3 ± 3.3 | vapor or sublimation pressure ([2]; 481.45 K): 95.5 ± 2 kPa
